Source: patent US6790652B1, “Method and apparatus for high density format screening for bioactive molecules” (BioImage A/S, priority 1998, dated 2004)
Like-named read-outs stand apart in the source and are kept apart here.

How the values were obtained:
A10 smooth muscle cells [1] = settings: read-out: EC50 for a mitochondrial depolarisation in these cells, known value; cited from earlier work
A10 smooth muscle cells [2] = settings: for response of detector cells (JC-1 fluorescence): five-concentration grid
Description: Cells were grown to confluence on tissue culture treated polystyrene in DMEM 10% FCS, 100 μg/ml streptomycin and 100 IU/ml penicillin. […] FCCP. FCCP (Sigma) was printed onto a supported porous aluminium oxide filter (Anopore, Whatman International Ltd, Maidstone, Kent, UK) in a 5×5 spot grid, at a single concentration of 50 μM in DMSO, or as five rows of five spots (50, 5, […], 0.05 and 0.005 μM in DMSO) and allowed to dry. The volume of liquid in each spot was approximately 1 nanoliter. The A10 cells were loaded for 25 min in KRW supplemented with 10% FCS and 5 μM JC-1 (Molecular Probes Inc.) at 37° C. After three washes in KRW, the cells were placed on the stage of a Nikon Diaphot epifluorescence microscope and imaged using a 2× plan apochromatic objective and a CCD camera (Princeton Instruments, NY USA). The cells were excited by 450-490 nm light and light emitted from the cells was filtered by a dichroic mirror (505 nm) and an emission filter (510-560 nm). Exposure/ntegration times of 0.5 s were used and images acquired at 4 s intervals. At the time indicated as 0 in FIGS. 8 and 9 a filter with spots of FCCP in the patterns mentioned above was lowered down into the buffer overlying the cells and rapidly adjusted to a distance of about 300 μm above the cell layer and thereafter fixed in that position.

BHKhM1 cells = experiment: Fluo-3 calcium response of BHKhM1 cells on porous membrane lowered onto compound spots on glass; assay type: cell-based; settings: approx. 10 nanoliters
Description: Ionomycin was printed onto a glass surface at two concentrations (10 mM and 1 mM), and thapsigargin was printed onto the surface at 1 mM. All spots were allowed to dry. The volume of liquid spotted was approx. 10 nanoliters per spot. At the time indicated as 0 s the still-wet membrane with the cells was lowered down onto the glass surface so that the membrane and the glass came in direct contact, thereby dissolving the compounds deposited in the spots.

SMILES	EC50 (A10 smooth muscle cells [1])	response of detector cells (JC-1 fluorescence) (A10 smooth muscle cells [2]; spot concentration 0.005 μM in DMSO)	response of detector cells (JC-1 fluorescence) (A10 smooth muscle cells [2]; spot concentration 0.05 μM in DMSO)	response of detector cells (JC-1 fluorescence) (A10 smooth muscle cells [2]; spot concentration 0.5 μM in DMSO)	response of detector cells (JC-1 fluorescence) (A10 smooth muscle cells [2]; spot concentration 5 μM in DMSO)	response of detector cells (JC-1 fluorescence) (A10 smooth muscle cells [2]; spot concentration 50 μM in DMSO)	fluorescence intensity time profile (mitochondrial membrane depolarisation) (A10 smooth muscle cells [2]; spots of 50 μM in DMSO, 5×5 grid, single concentration)	lag phase before rise in fluorescence intensity (A10 smooth muscle cells [2]; spots of 50 μM in DMSO, approx. 1 nanoliter, five central spots)	Fluo-3 fluorescence response (time profile) (BHKhM1 cells; spots printed at 1 mM)	Fluo-3 fluorescence response (onset, spatial size, intensity) (BHKhM1 cells; spots printed at 10 mM)	Fluo-3 fluorescence response (time profile) (BHKhM1 cells; spots printed at 10 mM)
N#CC(C#N)=NNc1ccc(OC(F)(F)F)cc1 [FCCP, carbonyl cyanide p-trifluoromethoxyphenylhydrazone]	~8 nM	do not show detectable responses	do not show detectable responses	clearly give positive responses	clearly give positive responses	quickest response	steep rise in fluorescence intensity	10 to 15 s	–	–	–
C[C@H](CCC(=O)O)C[C@H](C)C[C@H](C)C(=O)/C=C(\O)[C@H](C)C[C@H](C)C/C=C/[C@@H](C)[C@@H](O)[C@@H](C)[C@@H](O)C[C@@H]1CC[C@@](C)([C@H]2CC[C@@](C)([C@@H](C)O)O2)O1 [Ionomycin, ionomycin]	–	–	–	–	–	–	–	–	sustained responses	earliest, spatially largest, and most intense response	sustained responses
C/C=C(/C)C(=O)O[C@H]1C(C)=C2[C@H]([C@@H]1OC(=O)CCCCCCC)[C@@](C)(OC(C)=O)C[C@H](OC(=O)CCC)[C@@]1(O)[C@H]2OC(=O)[C@@]1(C)O [thapsigargin]	–	–	–	–	–	–	–	–	transient and lower in intensity than that of either concentration of ionomycin	–	–
